# Results: PubChem BioAssay (NCI)
#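 Five compound concentrations were applied to cells in 96-well plates for 48 hours; endpoints were derived by simple linear interpolation of the resulting dose-response curve. GI50 is the concentration that inhibits growth by half. The concentration for full growth arrest is given as TGI.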
# Assays:
# Test in all cases: growth of human tumour cells (NCI), 48 h
# SK-MEL-2 melanoma = system: SK-MEL-2 melanoma
# CAKI-1 renal = system: CAKI-1 renal
# SK-MEL-28 melanoma = system: SK-MEL-28 melanoma
# EKVX NSCLC = system: EKVX NSCLC
# SF-539 CNS = system: SF-539 CNS
# SNB-75 CNS = system: SNB-75 CNS
# HL-60(TB) leukemia = system: HL-60(TB) leukemia
# COLO 205 colon = system: COLO 205 colon
# MOLT-4 leukemia = system: MOLT-4 leukemia
# NCI-H522 lung = system: NCI-H522 lung
# MCF7 breast = system: MCF7 breast
# OVCAR-8 ovarian = system: OVCAR-8 ovarian
# IGROV1 ovarian = system: IGROV1 ovarian
# UACC-257 melanoma = system: UACC-257 melanoma
# MALME-3M melanoma = system: MALME-3M melanoma
# NCI/ADR-RES ovarian = system: NCI/ADR-RES ovarian
# PC-3 prostate = system: PC-3 prostate
# SK-MEL-5 melanoma = system: SK-MEL-5 melanoma
# T-47D breast = system: T-47D breast
# SK-OV-3 ovarian = system: SK-OV-3 ovarian
# SF-268 CNS = system: SF-268 CNS
# SR leukemia = system: SR leukemia
# MDA-MB-435 = system: MDA-MB-435
# A498 renal = system: A498 renal
# HS 578T breast = system: HS 578T breast
# CCRF-CEM leukemia = system: CCRF-CEM leukemia
# NCI-H23 lung = system: NCI-H23 lung
# OVCAR-4 ovarian = system: OVCAR-4 ovarian
# BT-549 breast = system: BT-549 breast
# NCI-H460 lung = system: NCI-H460 lung
# HT29 colon = system: HT29 colon
# ACHN renal = system: ACHN renal
# SF-295 CNS = system: SF-295 CNS
# HCC-2998 colon = system: HCC-2998 colon
# UO-31 renal = system: UO-31 renal
# HCT-15 colon = system: HCT-15 colon
# M14 melanoma = system: M14 melanoma
# RPMI-8226 leukemia = system: RPMI-8226 leukemia
# HOP-62 NSCLC = system: HOP-62 NSCLC
# SW-620 colon = system: SW-620 colon
# U251 CNS = system: U251 CNS
# HCT-116 colon = system: HCT-116 colon
# LOX IMVI melanoma = system: LOX IMVI melanoma
# RXF 393 renal = system: RXF 393 renal
# KM12 colon = system: KM12 colon
# MDA-MB-231 breast = system: MDA-MB-231 breast
# K-562 leukemia = system: K-562 leukemia
# OVCAR-3 ovarian = system: OVCAR-3 ovarian
# SNB-19 CNS = system: SNB-19 CNS
# 786-0 renal = system: 786-0 renal
# HOP-92 NSCLC = system: HOP-92 NSCLC
# DU-145 prostate = system: DU-145 prostate
# NCI-H226 lung = system: NCI-H226 lung
# OVCAR-5 ovarian = system: OVCAR-5 ovarian
# TK-10 renal = system: TK-10 renal
# SN12C renal = system: SN12C renal
compound,measurement,setting,value
COc1cccc2c1C(=O)c1c(O)c3c(c(O)c1C2=O)CC(O)(/C(C)=N/NC(=O)CCCCC(=O)N/N=C(\C)C1(O)Cc2c(O)c4c(c(O)c2C(OC2CC(N)C(O)C(C)O2)C1)C(=O)c1c(OC)cccc1C4=O)CC3OC1CC(N)C(O)C(C)O1 (centres undefined),GI50,SK-MEL-2 melanoma,585 nM
same,TGI,SK-MEL-2 melanoma,1790 nM
same,GI50,CAKI-1 renal,265 nM
same,TGI,CAKI-1 renal,3230 nM
same,GI50,SK-MEL-28 melanoma,473 nM
same,TGI,SK-MEL-28 melanoma,1620 nM
same,GI50,EKVX NSCLC,418 nM
same,TGI,EKVX NSCLC,21000 nM
same,GI50,SF-539 CNS,121 nM
same,TGI,SF-539 CNS,465 nM
same,GI50,SNB-75 CNS,118 nM
same,TGI,SNB-75 CNS,867 nM
same,GI50,HL-60(TB) leukemia,159 nM
same,TGI,HL-60(TB) leukemia,2380 nM
same,GI50,COLO 205 colon,87.7 nM
same,TGI,COLO 205 colon,440 nM
same,GI50,MOLT-4 leukemia,60.5 nM
same,TGI,MOLT-4 leukemia,694 nM
same,GI50,NCI-H522 lung,108 nM
same,TGI,NCI-H522 lung,811 nM
same,GI50,MCF7 breast,45.9 nM
same,TGI,MCF7 breast,> 50000 nM
same,GI50,OVCAR-8 ovarian,215 nM
same,TGI,OVCAR-8 ovarian,> 50000 nM
same,GI50,IGROV1 ovarian,906 nM
same,TGI,IGROV1 ovarian,> 21000 nM
same,GI50,UACC-257 melanoma,554 nM
same,TGI,UACC-257 melanoma,2370 nM
same,GI50,MALME-3M melanoma,146 nM
same,TGI,MALME-3M melanoma,973 nM
same,GI50,NCI/ADR-RES ovarian,17900 nM
same,TGI,NCI/ADR-RES ovarian,> 50000 nM
same,GI50,PC-3 prostate,597 nM
same,TGI,PC-3 prostate,9180 nM
same,GI50,SK-MEL-5 melanoma,97.4 nM
same,TGI,SK-MEL-5 melanoma,584 nM
same,GI50,T-47D breast,93.1 nM
same,TGI,T-47D breast,2070 nM
same,GI50,SK-OV-3 ovarian,227 nM
same,GI50,SF-268 CNS,147 nM
same,TGI,SF-268 CNS,4580 nM
same,GI50,SR leukemia,8.27 nM
same,TGI,SR leukemia,36.5 nM
same,GI50,MDA-MB-435,324 nM
same,TGI,MDA-MB-435,2010 nM
same,GI50,A498 renal,567 nM
same,TGI,A498 renal,1340 nM
same,GI50,HS 578T breast,263 nM
same,TGI,HS 578T breast,2830 nM
same,GI50,CCRF-CEM leukemia,207 nM
same,TGI,CCRF-CEM leukemia,18400 nM
same,GI50,NCI-H23 lung,173 nM
same,TGI,NCI-H23 lung,1120 nM
same,GI50,OVCAR-4 ovarian,401 nM
same,TGI,OVCAR-4 ovarian,8430 nM
same,GI50,BT-549 breast,511 nM
same,TGI,BT-549 breast,4350 nM
same,GI50,NCI-H460 lung,45.6 nM
same,TGI,NCI-H460 lung,10900 nM
same,GI50,HT29 colon,181 nM
same,TGI,HT29 colon,> 50000 nM
same,GI50,ACHN renal,188 nM
same,TGI,ACHN renal,1690 nM
same,GI50,SF-295 CNS,125 nM
same,TGI,SF-295 CNS,689 nM
same,GI50,HCC-2998 colon,318 nM
same,TGI,HCC-2998 colon,1140 nM
same,GI50,UO-31 renal,1340 nM
same,TGI,UO-31 renal,> 22000 nM
same,GI50,HCT-15 colon,2890 nM
same,TGI,HCT-15 colon,> 50000 nM
same,GI50,M14 melanoma,225 nM
same,TGI,M14 melanoma,1320 nM
same,GI50,RPMI-8226 leukemia,139 nM
same,TGI,RPMI-8226 leukemia,2630 nM
same,GI50,HOP-62 NSCLC,218 nM
same,TGI,HOP-62 NSCLC,1930 nM
same,GI50,SW-620 colon,147 nM
same,TGI,SW-620 colon,33400 nM
same,GI50,U251 CNS,147 nM
same,TGI,U251 CNS,> 23700 nM
same,GI50,HCT-116 colon,116 nM
same,GI50,LOX IMVI melanoma,80.3 nM
same,GI50,RXF 393 renal,209 nM
same,TGI,RXF 393 renal,831 nM
same,GI50,KM12 colon,361 nM
same,TGI,KM12 colon,6120 nM
same,GI50,MDA-MB-231 breast,749 nM
same,TGI,MDA-MB-231 breast,> 50000 nM
same,GI50,K-562 leukemia,222 nM
same,TGI,K-562 leukemia,> 23300 nM
same,GI50,OVCAR-3 ovarian,200 nM
same,TGI,OVCAR-3 ovarian,2750 nM
same,GI50,SNB-19 CNS,164 nM
same,TGI,SNB-19 CNS,1570 nM
same,GI50,786-0 renal,185 nM
same,TGI,786-0 renal,1940 nM
same,GI50,HOP-92 NSCLC,137 nM
same,TGI,HOP-92 NSCLC,2450 nM
same,GI50,DU-145 prostate,163 nM
same,TGI,DU-145 prostate,1930 nM
same,GI50,NCI-H226 lung,159 nM
same,TGI,NCI-H226 lung,1230 nM
same,GI50,OVCAR-5 ovarian,862 nM
same,TGI,OVCAR-5 ovarian,> 50000 nM
same,GI50,TK-10 renal,716 nM
same,TGI,TK-10 renal,> 14300 nM
same,GI50,SN12C renal,178 nM
same,TGI,SN12C renal,> 50000 nM
